Laboratory results published in US20150005288A1, “SUBSTITUTED PHENYLIMIDAZOPYRAZOLES AND USE THEREOF” (Bayer Intellectual Property GmbH, priority 2012, published 2015).

Legend:
[1] = target: T1, intracellular domain of human Tie2 (GST fusion protein) (Homo sapiens, UniProt Q02763); experiment: Tie2 kinase assay (Tie2-TR-FRET); format: biochemical; details: ATP concentration 1 mM, in some cases means of several independent determinations
T1 construct: intracellular domain of human Tie2 (amino acids 776-1124); made in house; host or cells: Baculovirus-infected insect cells (Hi5)
T1 sequence (Q02763 776-1124): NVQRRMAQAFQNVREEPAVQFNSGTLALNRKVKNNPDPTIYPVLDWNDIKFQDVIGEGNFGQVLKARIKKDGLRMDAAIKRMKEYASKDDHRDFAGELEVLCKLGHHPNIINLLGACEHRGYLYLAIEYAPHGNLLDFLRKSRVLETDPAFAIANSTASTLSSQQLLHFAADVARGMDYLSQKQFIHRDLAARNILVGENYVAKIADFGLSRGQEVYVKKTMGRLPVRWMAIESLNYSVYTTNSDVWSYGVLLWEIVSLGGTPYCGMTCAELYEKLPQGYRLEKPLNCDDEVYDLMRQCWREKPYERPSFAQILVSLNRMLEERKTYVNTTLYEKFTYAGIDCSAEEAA
In short: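 GST fusion of human Tie2 intracellular domain (aa 776-1124, Hi5-expressed), ~30 ng/ml, pre-incubated 15 min with compound, then 1 mM ATP and 1 μM biotinylated peptide, 60 min at 22 °C, pH 7. TR-FRET (Eu anti-phosphotyrosine/streptavidin-XL665, 665/620 nm ratio). […] 20 μM–0.073 nM in duplicate; IC50 by 4-parameter fit.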

endogenous Tie2 receptor = target: T2, endogenous Tie2 receptor (Homo sapiens, UniProt Q02763); experiment: Tie2-pTyr-ELISA: autophosphorylation of endogenous Tie2 receptor in HUVEC; format: cell-based; details: autophosphorylation elevated by sodium orthovanadate (4 mM), Tie2/phosphotyrosine sandwich ELISA, from 2-7 independent measurements
T2 construct: the endogenous Tie2 receptor; host or cells: HUVEC (human umbilical vein endothelial cells)
T2 sequence (Q02763 23-1124): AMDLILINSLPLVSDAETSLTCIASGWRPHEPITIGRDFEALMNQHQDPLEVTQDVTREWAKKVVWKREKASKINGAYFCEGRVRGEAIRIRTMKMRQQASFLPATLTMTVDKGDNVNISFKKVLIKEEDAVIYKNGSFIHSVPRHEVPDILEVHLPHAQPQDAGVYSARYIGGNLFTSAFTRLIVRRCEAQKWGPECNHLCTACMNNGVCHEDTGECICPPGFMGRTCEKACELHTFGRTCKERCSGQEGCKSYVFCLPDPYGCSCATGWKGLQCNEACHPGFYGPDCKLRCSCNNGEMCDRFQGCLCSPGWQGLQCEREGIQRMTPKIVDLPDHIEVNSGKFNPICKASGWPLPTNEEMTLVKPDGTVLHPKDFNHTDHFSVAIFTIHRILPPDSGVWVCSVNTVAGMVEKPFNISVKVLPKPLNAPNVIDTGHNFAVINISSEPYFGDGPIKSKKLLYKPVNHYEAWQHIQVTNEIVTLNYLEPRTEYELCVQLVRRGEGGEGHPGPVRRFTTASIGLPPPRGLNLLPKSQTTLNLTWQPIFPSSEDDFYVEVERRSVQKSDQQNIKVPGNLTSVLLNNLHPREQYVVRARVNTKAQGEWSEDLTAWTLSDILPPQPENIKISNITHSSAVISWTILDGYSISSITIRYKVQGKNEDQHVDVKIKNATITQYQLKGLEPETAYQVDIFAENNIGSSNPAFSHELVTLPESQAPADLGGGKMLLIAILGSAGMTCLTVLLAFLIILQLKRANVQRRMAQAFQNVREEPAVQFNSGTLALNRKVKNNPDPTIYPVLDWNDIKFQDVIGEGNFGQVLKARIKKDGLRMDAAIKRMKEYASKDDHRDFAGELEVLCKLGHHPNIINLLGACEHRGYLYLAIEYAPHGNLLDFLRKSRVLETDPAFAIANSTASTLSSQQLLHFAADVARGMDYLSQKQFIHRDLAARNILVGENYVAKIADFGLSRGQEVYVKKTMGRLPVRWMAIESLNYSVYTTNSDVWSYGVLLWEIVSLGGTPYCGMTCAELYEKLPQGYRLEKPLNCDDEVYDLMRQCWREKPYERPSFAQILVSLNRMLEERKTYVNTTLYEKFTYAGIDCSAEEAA
Description: The cellular activity of the compounds according to the invention as Tie2 kinase inhibitors was determined in human endothelial cells (HUVEC) by measuring the inhibition of the autophosphorylation, elevated by treatment with sodium orthovanadate, of the endogenous Tie2 receptor by means of a Tie2/phosphotyrosine sandwich ELISA.
Human endothelial cells (human umbilical vein endothelial cells, HUVEC) were obtained from Cellsystems (FC-0003), cultured in Vasculife VEGF complete medium (Cellsystems, LL-1020) with 2% foetal calf serum (FCS) at 37° C./5% CO2 and used for Tie2-ELISA measurements up to passage 8.
HUVEC were plated in a culture volume of 100 μl of Vasculife VEGF complete medium at a cell density of 30 000 cells per well in transparent collagen-coated 96-well cell culture plates (Falcon, #353075) and incubated in an incubation cabinet at 37° C./5% CO2 overnight. The test substances dissolved in DMSO were used to prepare in each case one dilution series in Vasculife VEGF low-serum medium [basal medium with LifeFactors (Cellsystems, LM-0002), without FCS, with 0.1% BSA] without sodium orthovanadate and one dilution series in Vasculife VEGF low-serum-medium with 8 mM sodium orthovanadate in the desired concentrations in the range from 10 pM to 10 μM, the final DMSO concentration being 1%. After removal of the complete medium, 100 μl per well of the dilute substances in low-serum medium without sodium orthovanadate were pipetted onto the cells, and the plates were incubated in an incubation cabinet at 37° C./5% CO2 for 10 min. A further 100 μl of the same substance dilution in low-serum medium with 8 mM sodium orthovanadate were then pipetted into the respective well and the cells were incubated in a volume of now 200 μl in the presence of 4 mM sodium orthovanadate at the desired substance concentration in an incubation cabinet at 37° C./5% CO2 for a further 20 min. The cell supernatant of the plates was then removed and the cells were washed once with 250 μl per well of cold PBS which contained 4 mM sodium orthovanadate. 120 μl of Duschl lysis buffer [50 mM HEPES pH 7.2, 150 mM NaCl, 1 mM MgCl2, 10% glycerol, 1.5% Triton X-100, 4 mM sodium orthovanadate, 250 μl S-PIC phosphatase inhibitor cocktail 2 (Sigma, P5726) and 1 tablet of Complete proteinase inhibitor mixture (Roche, #1836145) per 10 ml] were then added to the cells in each well. The plates were shaken briefly and then incubated on ice for 20 min, and the lysates in the cell culture plates were then frozen at −80° C. for at least 30 min.
For measuring the autophosphorylation of the endogenous Tie2 receptor in the cell lysates prepared, a self-prepared anti-Tie2 antibody directed against the N-terminus of the Tie-2 receptor (1.09 mg/ml) and an HRP-coupled anti-phosphotyrosine antibody (Sigma, A4595, clone pY-20) were used. White 96-well ELISA plates (Lumitrac600, Greiner, #655074) were incubated with 100 μl per well of a 1:1000 dilution of the anti-Tie2 antibody in coating buffer [15 mM Na2CO3, 35 mM NaHCO3, pH 9.6] with shaking at 4° C. overnight. The coated ELISA plates were washed three times with 250 μl PBST buffer [0.1% Tween-20 in PBS], the wells were blocked with 250 μl 3% BSA in PBST buffer with shaking at RT for 1-6 h and washed three more times with 250 μl PBST buffer. From the cell lysate plates thawed in the fridge, in each case 100 μl of lysate were transferred into the coated wells of the ELISA plates, and the plates were incubated with shaking at 4° C. overnight. The plates were washed three times with in each case 250 μl of PBST buffer, and 100 μl of a 1:5000 dilution of the anti-phosphotyrosine HRP antibody in 3% Prionex (Calbiochem, #529600) in PBST were then pipetted into each well and the plates were incubated with shaking and protected from light at 4° C. overnight. […]

Row | Compound | IC50 [1] [nM] | IC50 (endogenous Tie2 receptor) [nM]
1 | Cc1cc(C)c(-n2ccn3nc(-c4cccnc4)cc23)cc1NC(=O)c1cc(C#N)cc(S(F)(F)(F)(F)F)c1 [Example 74, 3-Cyano-N-{2,4-dimethyl-5-[6-(pyridin-3-yl)-1H-imidazo[1,2-b]pyrazol-1-yl]phenyl}-5-(pentafluoro-λ^6-sulphanyl)benzamide] | 0.5 | 0.6
2 | Cc1ccc(NC(=O)c2cc(F)cc(S(F)(F)(F)(F)F)c2)cc1-n1ccn2nc(-c3cccnc3)cc12 [Example 88, 3-Fluoro-N-{4-methyl-3-[6-(pyridin-3-yl)-1H-imidazo[1,2-b]pyrazol-1-yl]phenyl}-5-(pentafluoro-λ^6-sulphanyl)benzamide] | 23 | 41
3 | Cc1ccc(NC(=O)c2cc(C#N)cc(S(F)(F)(F)(F)F)c2)cc1-n1ccn2nc(-c3cnccn3)cc12 [Example 162, 3-Cyano-N-{4-methyl-3-[6-(pyrazin-2-yl)-1H-imidazo[1,2-b]pyrazol-1-yl]phenyl}-5-(pentafluoro-λ^6-sulphanyl)benzamide] | 28 | 8.9
4 | Cc1ccc(NC(=O)c2cc(C(C)(C)O)cc(S(F)(F)(F)(F)F)c2)cc1-n1ccn2nc(-c3cccnc3)cc12 [Example 32, 3-(2-Hydroxypropan-2-yl)-N-{4-methyl-3 [6-(pyridin-3-yl)-1H-imidazo[1,2-b]pyrazol-1-yl]-phenyl}-5-(pentafluoro-λ^6-sulphanyl)benzamide] | 0.4 | 2.1
5 | Cc1ccc(NC(=O)c2cc(CN3CCCC3)cc(C(C)(C)C)c2)cc1-n1ccn2nc(-c3cccnc3)cc12 [Example 51, 3-tert-Butyl-N-{4-methyl-3-[6-(pyridin-3-yl)-1H-imidazo[1,2-b]pyrazol-1-yl]phenyl}-5-(pyrrolidin-1-ylmethyl)benzamide] | 0.7 | 8.8
6 | Cc1cc(C)c(-n2ccn3nc(-c4cccnc4)cc23)cc1NC(=O)c1cccc(S(F)(F)(F)(F)F)c1 [Example 73, N-{2,4-Dimethyl-5-[6-(pyridin-3-yl)-1H-imidazo[1,2-b]pyrazol-1-yl]phenyl}-3-(pentafluoro-λ^6-sulphanyl)benzamide] | 0.3 | 0.8
7 | Cc1ccc(NC(=O)c2cc(N3CCN(C)CC3)cc(C(C)(C)C)c2)cc1-n1ccn2nc(-c3cccnc3)cc12 [Example 48, 3-tert-Butyl-5-(4-methylpiperazin-1-yl)-N-{4-methyl-3-[6-(pyridin-3-yl)-1H-imidazo[1,2-b]-pyrazol-1-yl]phenyl}benzamide] | 0.3 | 6.4
8 | CNc1cc(C(=O)Nc2ccc(C)c(-n3ccn4nc(-c5cccnc5)cc34)c2)cc(C(C)(C)C)n1 [Example 66, 2-tert-Butyl-6-(methylamino)-N-{4-methyl-3-[6-(pyridin-3-yl)-1H-imidazo[1,2-b]pyrazol-1-yl]-phenyl}isonicotinamide] | 7.9 | 46
9 | Cc1ccc(NC(=O)c2cc(C#N)cc(S(F)(F)(F)(F)F)c2)cc1-n1cc(C)n2nc(-c3cn[nH]c3)cc12 [Example 12, 3-Cyano-N-{4-methyl-3-[3-methyl-6-(1H-pyrazol-4-yl)-1H-imidazo[1,2-b]pyrazol-1-yl]phenyl}-5-(pentafluoro-λ^6-sulphanyl)benzamide] | 0.7 | 4.7
10 | Cc1ccc(NC(=O)c2cc(S(C)(=O)=O)cc(S(F)(F)(F)(F)F)c2)cc1-n1ccn2nc(-c3cccnc3)cc12 [Example 26, N-{4-Methyl-3-[6-(pyridin-3-yl)-1H-imidazo[1,2-b]pyrazol-1-yl]phenyl}-3-(methylsulphonyl)-5-(pentafluoro-λ^6-sulphanyl)benzamide] | 0.8 | 3
11 | Cc1ccc(NC(=O)c2cc(N3CCOCC3)cc(S(F)(F)(F)(F)F)c2)cc1-n1ccn2nc(-c3cn[nH]c3)cc12 [Example 3, N-{4-Methyl-3-[6-(1H-pyrazol-4-yl)-1H-imidazo[1,2-b]pyrazol-1-yl]phenyl}-3-(morpholin-4-yl)-5-(pentafluoro-λ^6-sulphanyl)benzamide] | 1.2 | 3.4
12 | Cc1cc(NC(=O)c2cc(C#N)cc(S(F)(F)(F)(F)F)c2)cc(-n2ccn3nc(-c4cccnc4)cc23)c1C [Example 102, 3-Cyano-N-{3,4-dimethyl-5-[6-(pyridin-3-yl)-1H-imidazo[1,2-b]pyrazol-1-yl]phenyl}-5-(pentafluoro-λ^6-sulphanyl)benzamide] | 19 | 18
13 | Cc1cc(C)c(-n2ccn3nc(-c4cccnc4)cc23)cc1NC(=O)c1cc(F)cc(S(F)(F)(F)(F)F)c1 [Example 107, N-{2,4-Dimethyl-5-[6-(pyridin-3-yl)-1H-imidazo[1,2-b]pyrazol-1-yl]phenyl}-3-fluoro-5-(pentafluoro-λ^6-sulphanyl)benzamide] | 0.6 | 0.9
14 | Cc1cc(Cl)c(-n2ccn3nc(-c4cccnc4)cc23)cc1NC(=O)c1cccc(S(F)(F)(F)(F)F)c1 [Example 157, N-{4-Chloro-2-methyl-5-[6-(pyridin-3-yl)-1H-imidazo[1,2-b]pyrazol-1-yl]phenyl}-3-(pentafluoro-λ^6-sulphanyl)benzamide] | 0.5 | 1
